Measured values taken from PubChem BioAssay (NCI).
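Where inhibition never reached the appropriate level, the endpoint shown equals the highest concentration tested. Otherwise, values were interpolated linearly from a five-concentration, 48-hour dose response in 96-well plates. TGI denotes the concentration required for complete inhibition of growth.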

Experiments:
Experiment in all cases: NCI-60 cell line screen, 48 h
BT-549 breast = system: BT-549 breast
HCT-15 colon = system: HCT-15 colon
NCI-H226 lung = system: NCI-H226 lung
HT29 colon = system: HT29 colon
NCI-H522 lung = system: NCI-H522 lung
PC-3 prostate = system: PC-3 prostate
SK-OV-3 ovarian = system: SK-OV-3 ovarian
MDA-MB-435 = system: MDA-MB-435
MDA-MB-231 breast = system: MDA-MB-231 breast
RPMI-8226 leukemia = system: RPMI-8226 leukemia
TK-10 renal = system: TK-10 renal
HCT-116 colon = system: HCT-116 colon
MALME-3M melanoma = system: MALME-3M melanoma
SNB-75 CNS = system: SNB-75 CNS
M14 melanoma = system: M14 melanoma
HOP-92 NSCLC = system: HOP-92 NSCLC
LOX IMVI melanoma = system: LOX IMVI melanoma
SR leukemia = system: SR leukemia
HCC-2998 colon = system: HCC-2998 colon
NCI/ADR-RES ovarian = system: NCI/ADR-RES ovarian
HS 578T breast = system: HS 578T breast
UACC-257 melanoma = system: UACC-257 melanoma
CCRF-CEM leukemia = system: CCRF-CEM leukemia
OVCAR-8 ovarian = system: OVCAR-8 ovarian
SF-539 CNS = system: SF-539 CNS
U251 CNS = system: U251 CNS
DU-145 prostate = system: DU-145 prostate
MCF7 breast = system: MCF7 breast
KM12 colon = system: KM12 colon
OVCAR-5 ovarian = system: OVCAR-5 ovarian
IGROV1 ovarian = system: IGROV1 ovarian
ACHN renal = system: ACHN renal
RXF 393 renal = system: RXF 393 renal
SF-268 CNS = system: SF-268 CNS
NCI-H23 lung = system: NCI-H23 lung
SW-620 colon = system: SW-620 colon
786-0 renal = system: 786-0 renal
SNB-19 CNS = system: SNB-19 CNS
A498 renal = system: A498 renal
MOLT-4 leukemia = system: MOLT-4 leukemia
SN12C renal = system: SN12C renal
EKVX NSCLC = system: EKVX NSCLC
T-47D breast = system: T-47D breast
SF-295 CNS = system: SF-295 CNS
A549 NSCLC = system: A549 NSCLC
UO-31 renal = system: UO-31 renal
UACC-62 melanoma = system: UACC-62 melanoma
NCI-H460 lung = system: NCI-H460 lung
SK-MEL-5 melanoma = system: SK-MEL-5 melanoma
K-562 leukemia = system: K-562 leukemia
OVCAR-4 ovarian = system: OVCAR-4 ovarian
OVCAR-3 ovarian = system: OVCAR-3 ovarian
MDA-N = system: MDA-N
CAKI-1 renal = system: CAKI-1 renal
HOP-62 NSCLC = system: HOP-62 NSCLC
SK-MEL-2 melanoma = system: SK-MEL-2 melanoma
COLO 205 colon = system: COLO 205 colon
HL-60(TB) leukemia = system: HL-60(TB) leukemia
SK-MEL-28 melanoma = system: SK-MEL-28 melanoma

Measured: TGI

CCCCc1ccc(Nc2nc3c(ncn3COCCBr)c(=O)[nH]2)cc1
not listed: SK-MEL-28 melanoma
> 100 µM: all other assays above

O=c1oc2c([N+](=O)[O-])cc([N+](=O)[O-])cc2c2ccccc12
not listed: SK-OV-3 ovarian | KM12 colon | UO-31 renal
> 100 µM: all other assays above
